The term IC50 denotes the concentration that inhibits the measured activity by half.

This note sets out measurements from PubChem BioAssay AID860 (Vanderbilt High Throughput Screening Facility, 2007).

In the experiment the target is Muscarinic acetylcholine receptor M4 (Rattus norvegicus) (UniProt P08485). Nature of the experiment: rat M4 receptor inhibition concentration-response – cell-based, antagonist mode, counter-screen for M1 allosteric modulator project, dose response (AID 860). To be noted: rat M4-expressing cells, calcium fluorescence, antagonist mode at EC80 agonist.
Chain of Muscarinic acetylcholine receptor M4 (Rattus norvegicus) (P08485 whole entry, looked up): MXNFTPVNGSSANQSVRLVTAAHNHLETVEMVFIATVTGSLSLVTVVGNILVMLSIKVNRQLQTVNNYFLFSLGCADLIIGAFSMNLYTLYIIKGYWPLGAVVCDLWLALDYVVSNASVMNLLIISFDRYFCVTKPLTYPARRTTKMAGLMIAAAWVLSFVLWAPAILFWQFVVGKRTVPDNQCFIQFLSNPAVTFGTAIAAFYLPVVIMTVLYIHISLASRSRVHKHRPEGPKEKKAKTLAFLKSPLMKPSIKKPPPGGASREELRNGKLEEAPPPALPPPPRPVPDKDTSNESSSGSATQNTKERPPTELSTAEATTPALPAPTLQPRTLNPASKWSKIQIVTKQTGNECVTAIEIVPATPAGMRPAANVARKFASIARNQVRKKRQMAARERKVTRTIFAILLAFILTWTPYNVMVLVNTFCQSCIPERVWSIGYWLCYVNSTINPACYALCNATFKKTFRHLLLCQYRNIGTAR
Take `CN(C)CCOC(=O)C(c1ccccc1)C1(O)CCCC1` (centres undefined): the IC50 is 0.0117 µM.

Take `CCN1C(=O)/C(=C\N2CCCCCC2)SC1=S`: the IC50 was 0.759 µM. Turning to `CCN(CC)c1ccc(C2C(C(=O)OCCOC(C)C)=C(C)NC3=C2C(=O)CCC3)cc1` (centres undefined), the IC50 is 0.822 µM. In the case of `CNCCCC1c2ccccc2C=Cc2ccccc21` it was 0.925 µM; in that of `O=C(CN1CCCC(O)C1)N1c2ccccc2Sc2ccc(C(F)(F)F)cc21` (centres undefined), 0.979 µM.

As to `COC(=O)c1ccc(CSc2nc(C)nc3c2c(=O)n(C)c(=O)n3C)o1`, the IC50 is 1.3 µM.

For `O=C(OCCN1CCCC1)C1(c2ccccc2)CCCC1`, the IC50 was 0.325 µM. With `Cc1ccc2c(c1)NC(=O)C(CC(=O)Nc1ccc(CN3CCC(C)CC3)cc1)O2` (centres undefined), the IC50 is 0.0716 µM. For the compound `OC(CCN1CCCC1)(c1ccccc1)C1CCCCC1` (centres undefined), the IC50 was 0.0343 µM.

For the compound `CCC(C)N(CCNC(=O)CC1Oc2ccccc2NC1=O)C1CCCCC1` (centres undefined), the IC50 was 0.847 µM. In the case of `Cc1nc2c(o1)CCc1ccccc1C2N1CCN(C)CC1` (centres undefined) it was 0.0383 µM; in that of `O=C(CC(c1ccccc1O)N1CCCCC1)N1CCCCC1` (centres undefined), 0.752 µM. In the case of `CCN(CCCCOC(=O)c1ccc(OC)c(OC)c1)C(C)Cc1ccc(OC)cc1` (centres undefined), the IC50 is 0.742 µM.

Regarding `Cc1ccc(C(=O)C2CCN(CC(=O)NC3CCCCC3)CC2)cc1`, the IC50 is 0.0727 µM.

`CN(C)CCCOC(=O)C1c2ccccc2Oc2ccccc21`: the IC50 is 0.215 µM. Consider `CN(C)CCC=C1c2ccccc2CCc2ccccc21`, for which the IC50 was 1.15 µM. In the case of `COc1ccc(N2C(=O)CSC23C(=O)N2CCCc4cccc3c42)cc1` (centres undefined) it was 0.451 µM; in that of `CC1CCN(Cc2ccc(NC(=O)CC3Oc4ccccc4NC3=O)cc2)CC1` (centres undefined), 0.0331 µM; in that of `O=C(NC1CCN(Cc2ccccc2)CC1)C1COc2ccccc2O1` (centres undefined), 0.411 µM. Consider `CN1CCC(=C2c3ccccc3C=Cc3ccccc32)CC1`, for which the IC50 is 0.136 µM. In the case of `OC(CCN1CCCCC1)(c1ccccc1)c1ccccc1` it was 0.111 µM.

Consider `CCC(C)N(CCNC(=O)CC1Oc2ccc(C)cc2NC1=O)C1CCCCC1` (centres undefined), for which the IC50 is 0.577 µM. For the compound `CCN(CC)CCOC(=O)C(c1ccccc1)c1ccccc1`, the IC50 was 0.747 µM. Take `CCCC(CCC)C(=O)OC1C[C@H]2CC[C@@H](C1)[N+]2(C)C` (some centres undefined): the IC50 was 0.0294 µM.
